Literature values as cited in paper PMC5693832 (Ophthalmology and Therapy, 2017).

Assays:
[1] = tested on: IOP in healthy Japanese subjects; conditions: 0.024% once daily for 14 days
[2] = tested on: IOP in Japanese subjects with POAG or OHT; conditions: 0.024% every evening
[3] = tested on: diurnal IOP in POAG or OHT patients; conditions: 0.006% to 0.040%, 28 days
IOP = conditions: 0.024%, summary of the clinical trials
[4] = tested on: IOP over a 24-h diurnal time period; conditions: for IOP reduction over the 24 h period, in words: 24-h diurnal period
platelets = conditions: humans

Row | SMILES | most common adverse events [1] | severity of adverse events [1] | IOP (SD) at 52 weeks [2] | IOP reduction by 52 weeks from baseline ([2]; baseline 19.6 (2.9) mmHg) [%] | adverse events (pupil dilation, blurred vision) [3] | efficacy (change from baseline mean diurnal IOP), dose relation [3] | additional IOP reduction versus latanoprost and timolol monotherapy (IOP) | IOP reduction over the 24 h period, in words [4] | post treatment mean IOP (SD), nighttime ([4]; nighttime, baseline 25.7 (3.8) mmHg) | NO release after oral administration (platelets)
1 | O=C(CCC/C=C\C[C@@H]1[C@@H](CC[C@@H](O)CCc2ccccc2)[C@H](O)C[C@@H]1O)OCCCCO[N+](=O)[O-] [latanoprostene bunod] | punctate keratitis and conjunctival hyperemia | mild | 14.4 (2.7) mmHg | 26 | neither pupil dilation nor blurred vision were reported as adverse events | dose-dependent | 1–2 mmHg | sustained IOP reduction during the 24 h period | 23.2 (3.4) mmHg | 
2 | CC(=O)Oc1ccccc1C(=O)Oc1cccc(CO[N+](=O)[O-])c1 [NCX 4016, 2-(acetyloxy)benzoic acid-3-[(nitrooxy)methyl]phenyl ester] |  |  |  |  |  |  |  |  |  | capable of releasing NO
3 | CC(C)(C)NC[C@H](O)COc1nsnc1N1CCOCC1 [timolol] |  |  |  |  |  |  |  | primarily effective during the daytime |  | 
